In the first experiment the test system is Aβ42. Kind of experiment: Detection of secreted Aβ42 with Biosource ELISA kit in H4 cells expressing APP695. It is filed as cell-based. The settings on record: Ab42 lowering, cell based assay; read-out: Ab42 IC50. How it is done:
The present invention provides compositions and methods for lowering Aβ42 levels. To test whether compounds and compositions are capable of modulating Aβ levels, a sandwich enzyme-linked immunosorbent assay (ELISA) is employed to measure secreted Aβ (Aβ42 and/or Aβ40) levels. In this example, H4 cells expressing wide type APP695 are seeded at 200,000 cells/per well in 6 well plates, and incubated at 37 degree C. with 5% CO2 overnight. Cells are treated with 1.5 ml medium containing vehicle (DMSO) or a test compound at 1.25 μM, 2.5 μM, 5.0 μM and 10.0 μM (as well as other concentration if desirable) concentration for 24 hours or 48 hours. The supernatant from treated cells is collected into eppendorf tubes and frozen at −80 degree C. for future analysis.
The amyloid peptide standard is reconstituted and frozen samples are thawed. The samples and standards are diluted with appropriate diluents and the plate is washed 4 times with Working Wash Buffer and patted dry on a paper towel. 100 μL per well of peptide standards, controls, and dilutions of samples to be analyzed is added. The plate is incubated for 2 hours while shaking on an orbital plate shaker at RT. The plate is then washed 4 times with Working Wash Buffer and patted dry on a paper towel. Detection Antibody Solution is poured into a reservoir and 100 μL /well of Detection Antibody Solution is immediately added to the plate. The plate is incubated at RT for 2 hours while shaking and then washed four times with Working Wash Buffer and patted dry on a paper towel. Secondary Antibody Solution is then poured into a reservoir and 100 μL /well of Secondary Antibody Solution is immediately added to the plate. The plate is incubated at RT for 2 hours with shaking, washed 5 times with Working Wash Buffer, and patted dry on a paper towel.
100 μL of stabilized chromogen is added to each well and the liquid in the wells begins to turn blue. The plate is incubated for 30 minutes at room temperature and in the dark. 100 μL of stop solution is added to each well and the plate is tapped gently to mix resulting in a change of solution color from blue to yellow. The absorbance of each well is read at 450 nm having blanked the plate reader against a chromogen blank composed of 100 μL each of stabilized chromogen and stop solution. The plate is read within 2 hours of adding the stop solution. The absorbance of the standards is plotted against the standard concentration and the concentrations of unknown samples and controls are calculated.
These compounds were synthesized via the indicated synthetic route. Ab42 IC50 (uM) refers to IC50 value for Ab42 lowering in e.g., the assay described in Example 6.
Background: An ELISA detects its analyte on a solid surface through an enzyme-linked reagent.
The IC50 is the point on the concentration scale where inhibition reaches its midpoint. As for `O=C(O)c1ccc(-n2c(-c3ccccc3)cc3c2CCC(C2CCCCC2)C3)o1` (stereo not shown) [5-(5-cyclohexyl-2-phenyl-4,5,6,7-tetrahydroindol-1-yl)-furan-2-carboxylic acid], the IC50 was 40 µM.
For the compound `O=C(O)c1ccc(-n2c(-c3ccccc3)cc3c4ccccc4ccc32)o1` [5-(2-phenylbenzo[e]indol-3-yl)furan-2-carboxylic acid], the IC50 was determined as 22 µM.
Same read-out and setting: the figure for `CC1CCc2c(cc(-c3ccccc3)n2-c2nc(C(=O)O)cs2)C1` (stereo not shown) [2-(5-methyl-2-phenyl-4,5,6,7-tetrahydroindol-1-yl) thiazole-4-carboxylic acid] is greater than 100 µM; for `O=C(O)c1cccc(-c2cc3c4ccccc4ccc3n2-c2ccoc2)c1` [3-(3-furan-3-yl-3H-benzo[e]indol-2-yl) benzoic acid] it is greater than 100 µM; for `O=C(O)CCCc1ccc(-n2c(-c3ccc4c(c3)OCO4)cc3c4ccccc4ccc32)cc1` it is 8.9 µM.
Still for that read-out and setting: in the case of `O=C(O)c1cccc(-n2c(-c3ccccn3)cc3c2CCc2ccccc2-3)c1` [3-(2-pyridin-2-yl-4,5-dihydrobenzo[e]indol-3-yl) benzoic acid] it was 70 µM; in that of `O=C(O)c1cccc(-n2nc(-c3ccccc3)cc2-c2ccccc2)c1` [3-(3,5-diphenyl-pyrazol-1-yl)-benzoic acid], greater than 100 µM; in that of `c1cncc(-c2cc3c(n2-c2cccc(-c4nn[nH]n4)c2)CCc2ccccc2-3)c1` [2-pyridin-3-yl-3-[3-(2H-tetrazol-5-yl)-phenyl]-4,5-dihydro-3H-benzo[e]indole], greater than 100 µM.
On to `CC1CCc2c(cc(-c3ccccc3)n2-c2ccc(C(=O)O)o2)C1` (stereo not shown) [5-(5-methyl-2-phenyl-4,5,6,7-tetrahydroindol-1-yl) furan-2-carboxylic acid], for which the IC50 is greater than 100 µM.
As for `Cc1onc(-c2ccccc2)c1-c1cc2c3ccccc3ccc2n1-c1cccc(-c2nn[nH]n2)c1`, the IC50 is 31 µM.
The same measure, in the same setting: the figure for `O=C(O)c1ccc(-n2c(-c3ccc(Cl)c(Cl)c3)cc3c2CCCC3C(F)(F)F)o1` (stereo not shown) [5-[2-(3,4-dichlorophenyl)-4-trifluoromethyl-4,5,6,7-tetrahydroindol-1-yl]-furan-2-carboxylic acid] is 7.36 µM; for `O=C(O)c1coc(Cn2c(-c3cc(-c4ccccc4)no3)cc3c4ccccc4ccc32)c1` [5-[2-(3-phenylisoxazol-5-yl)-benzo[e]indol-3-ylmethyl] furan-3-carboxylic acid] it is greater than 100 µM.
Same read-out and setting: in the case of `O=C(O)c1ccc(-n2c(-c3cc4ccccc4o3)cc3c4ccccc4ccc32)o1` [5-(2-benzofuran-2-yl-benzo[e]indol-3-yl) furan-2-carboxylic acid] it was 22 µM; in that of `c1ccc(-c2cc3c4ccccc4ccc3n2-c2cccc(-c3nn[nH]n3)c2)nc1` [2-pyridin-2-yl-3-[3-(2H-tetrazol-5-yl)-phenyl]-3H-benzo[e]indole], 32 µM.
As to `O=C(O)c1ccc(-n2c(-c3ccc(Cl)c(Cl)c3)cc3c2CC(C(F)(F)F)CC3)o1` (stereo not shown) [5-[2-(3,4-dichlorophenyl)-6-trifluoromethyl-4,5,6,7-tetrahydroindol-1-yl]-furan-2-carboxylic acid], the IC50 stood at 8.9 µM.
Consider `CC(C)(C)C1CCc2c(cc(-c3ccc(C(F)(F)F)cc3)n2-c2ccc(C(=O)O)o2)C1` (stereo not shown) [5-[5-tButyl-2-(4-trifluoromethylphenyl)-4,5,6,7-tetrahydroindol-1-yl] furan-2-carboxylic acid], for which the IC50 stood at 14 µM.
The same measure, in the same setting: the figure for `O=C(O)c1cccc(-n2c(-c3ccc4c(c3)OCO4)cc3c2CCc2ccccc2-3)c1` [3-(2-benzo[1,3]dioxol-5-yl-4,5-dihydrobenzo[e]indol-3-yl) benzoic acid] is 18 µM; for `O=C(O)c1ccc(-n2c(-c3ccc(N4CCOCC4)cc3)cc3c2CCC(C(F)(F)F)C3)o1` (stereo not shown) [5-[2-(4-morpholin-4-yl-phenyl)-5-trifluoromethyl-4,5,6,7-tetrahydroindol-1-yl]-furan-2-carboxylic acid] it is 68 µM; for `COC(=O)c1ccc(-n2c(-c3ccccc3)cc3c2CCC(C(C)(C)C)C3)o1` (stereo not shown) [5-(5-tertButyl-2-phenyl-4,5,6,7-tetrahydroindol-1-yl) furan-2-carboxylic acid methyl ester] it is greater than 100 µM.
On the same count and under the same terms, the figure for `O=C(O)CCCc1ccc(-n2c(-c3ccc(-c4ccc(Cl)cc4Cl)o3)cc3c4ccccc4ccc32)cc1` [4-(4-{2-[5-(2 4-dichlorophenyl)-furan-2-yl]-benzo[e]indol-3-yl}-phenyl) butyric acid] is 17 µM; for `CC(C)(C)C1CCc2c(cc(-c3ccccc3)n2-c2ccc(C(=O)O)o2)C1` (stereo not shown) [5-(5-tertButyl-2-phenyl-4,5,6,7-tetrahydroindol-1-yl) furan-2-carboxylic acid] it is 3.7 µM.
`O=C(O)c1cccc(-n2c(-c3cc(-c4ccccc4)no3)cc3c2CCc2ccccc2-3)c1` [drawing 1709]: the concentration for half-maximal inhibition (IC50) turned out to be 2.2 µM.
Still for that read-out and setting: in the case of `O=C(O)c1ccc(-n2c(-c3cc4ccccc4o3)cc3c2CC(C(F)(F)F)CC3)o1` (stereo not shown) [5-(2-benzofuran-2-yl-6-trifluoromethyl-4,5,6,7-tetrahydroindol-1-yl)-furan-2-carboxylic acid] it was 23 µM; in that of `O=C(O)c1cccc(-n2c(-c3cc4ccccc4o3)cc3c2CCc2ccccc2-3)c1` [3-(2-benzofuran-2-yl-4,5-dihydrobenzo[e]indol-3-yl) benzoic acid], 0.56 µM.
Same read-out and setting: the figure for `c1cc(-c2nn[nH]n2)cc(-n2c(-c3ccsc3)cc3c4ccccc4ccc32)c1` [3-[3-(2H-tetrazol-5-yl)-phenyl]-2-thiophen-3-yl-3H benzo[e]indole] is 31 µM; for `O=C(O)c1ccc(-n2c(-c3ccc(C(F)(F)F)cc3)cc3c4ccccc4ccc32)o1` [5-[2-(4-trifluoromethylphenyl)-benzo[e]indol-3-yl]-furan-2-carboxylic acid] it is 21 µM; for `O=C(O)c1ccc(-n2c(-c3cc4ccccc4o3)cc3c2CCC(C(F)(F)F)C3)o1` (stereo not shown) [5-(2-benzofuran-2-yl-5-trifluoromethyl-4,5,6,7-tetrahydroindol-1-yl)-furan-2-carboxylic acid] it is 44 µM.
Regarding `c1cc(-c2nn[nH]n2)cc(-n2c(-c3cc4ccccc4o3)cc3c2CCc2ccccc2-3)c1` [2-benzofuran-2-yl-3-[3-(2H-tetrazol-5-yl)-phenyl]-4,5-dihydro-3H-benzo[e]indole], the IC50 stood at 9.3 µM.
On the same count and under the same terms, the figure for `O=C(O)c1cccc(-n2c(-c3ccc4c(c3)OCO4)cc3c4ccccc4ccc32)c1` [3-(2-benzo[1,3]dioxol-5-yl-benzo[e]indol-3-yl) benzoic acid] is 20 µM.

Staying with this experiment, now noted: IC50 value for Ab42 lowering in e.g. the assay described in Example 6; read-out: Ab42 IC50.
With `O=C(O)c1cccc(-n2c(-c3ccccc3)cc3c2CCC(c2ccccc2)C3)c1` (stereo not shown) [Compound 71, 3-(2,5-diphenyl 4,5,6,7-tetrahydroindol-1-yl) benzoic acid], the IC50 is 50 µM.
On the same count and under the same terms, in the case of `O=C(O)CCCn1c(-c2ccccc2)cc2c3ccccc3ccc21` [Compound 68, 4-(2-phenyl-benzo[e]indol-3-yl) butyric acid] it was 31 µM.
Take `CC1CCCc2c1cc(-c1ccccc1)n2-c1cccc(C(=O)O)c1` (stereo not shown) [Compound 91, 3-(4-methyl-2-phenyl-4,5,6,7-tetrahydroindol-1-yl) benzoic acid]: the IC50 was found to be 3 µM.
In the case of `O=C(O)CCc1cccc(-n2c(-c3ccccc3)cc3c2CCCC3)c1` [Compound 90, 3-[3-(2-phenyl-4,5,6,7-tetrahydroindol-1-yl)-phenyl] propionic acid], the IC50 is 54 µM.
Same read-out and setting: in the case of `O=C(O)c1cccc(-n2c(-c3ccccc3)cc3ccccc32)c1` [Compound 17, 3-(2-phenylindol 1-yl) benzoic acid] it was 55 µM; in that of `O=C(O)CCCc1ccc(-n2c(-c3ccccc3)cc3c4ccccc4ccc32)cc1` [Compound 89, 4-[4-(2-phenyl-benzo[e]indol-3-yl)-phenyl] butyric acid], 8 µM; in that of `CC1CCc2c(cc(-c3ccccc3)n2-c2cccc(CCC(=O)O)c2)C1` (stereo not shown) [Compound 88, 3-[3-(5-methyl-2-phenyl-4,5,6,7-tetrahydroindol-1-yl)-phenyl] propionic acid], 27 µM.

Still in this experiment, the particulars now being: cell based assay described in Example 6; read-out: Ab42 lowering IC50.
Consider `c1ccc(-c2cc(-c3cc4c(n3-c3cccc(-c5nn[nH]n5)c3)CCc3ccccc3-4)on2)cc1` [Compound 138, 2-(3-phenylisoxazol-5-yl)-3-[3-(2H-tetrazol-5-yl)-phenyl]-4,5-dihydro-3H-benzo[e]indole], for which the 50% inhibitory concentration (IC50) stood at 10 µM.

(Values after patent publication US9034871B2, “Compounds for Alzheimer's disease” (priority 2004, dated 2015).)
